Our source for the FR50, Activity and LD100 values is ChEMBL document CHEMBL3046582, “Antifeedant activity of sesquiterpenes from celastraceae” (1997).

Calls of active or inactive are those of the source. The rule behind the calls is not given here.

The test system of experiment [1] is Spodoptera littoralis. Description: Antifeedant activity against newly ecdysed fifth-instar larval stage of Spodoptera littoralis in compound-pretreated lettuce leaf disks assessed as consumed area of leaf disks at 0.01 ug/cm'2 measured at 30 min intervals for 4-5 hr post-drug exposure by choice test. In kind it is functional.
The test system of experiment [2] is Spodoptera littoralis. The experiment can be described thus: Antifeedant activity against newly ecdysed fifth-instar larval stage of Spodoptera littoralis in compound-pretreated lettuce leaf disks assessed as consumed area of leaf disks at 10 ug/cm'2 measured at 30 min intervals for 4-5 hr post-drug exposure by choice test. The class given is functional.
For experiment [3], the system named is Spodoptera littoralis. Description: Antifeedant activity against newly ecdysed fifth-instar larval stage of Spodoptera littoralis in compound-pretreated lettuce leaf disks assessed as consumed area of leaf disks at 0.1 ug/cm'2 measured at 30 min intervals for 4-5 hr post-drug exposure by choice test. The class given is functional.
In experiment [4] the test system is Spodoptera littoralis. The experiment can be described thus: Antifeedant activity against newly ecdysed fifth-instar larval stage of Spodoptera littoralis in compound-pretreated lettuce leaf disks assessed as consumed area of leaf disks at 1 ug/cm'2 measured at 30 min intervals for 4-5 hr post-drug exposure by choice test. In kind it is functional.
Experiment [5] concerns Spodoptera littoralis. Description: Antifeedant activity against newly ecdysed fifth-instar larval stage of Spodoptera littoralis in compound-pretreated lettuce leaf disks assessed as consumed area of leaf disks measured at 30 min intervals for 4-5 hr post-drug exposure by choice test. In kind it is functional, organism-based.
Experiment [6] concerns Spodoptera littoralis. Description: Insecticidal activity against newly ecdysed fifth-instar larval stage of Spodoptera littoralis in compound-pretreated lettuce leaf disks assessed as mortality at 3 hr post-drug exposure. The class given is functional.

In the case of `COCCCC[C@@H]1[C@@H]2[C@@H](OC(C)=O)[C@@]3(OC2(C)C)[C@@](OC(C)=O)([C@@H](OC(C)=O)CC[C@]3(C)O)[C@@H]1OC(=O)c1ccccc1`, the FR50 in experiment [1] worked out at 0.69; in experiment [2] it was 0; in experiment [3], 0.23; in experiment [4] it was 0.
Take `O=C(OC1CCOC1)c1cc([N+](=O)[O-])cc([N+](=O)[O-])c1` (racemic): the result in experiment [5] was inactive. Moreover, the LD100 entry in experiment [6] is “inactive”.
As for `CC(=O)O[C@H]1[C@@H]2[C@@H](OC(=O)c3cccnc3)[C@@]3(OC2(C)C)[C@@](C)([C@@H](OC(=O)c2ccccc2)CC[C@]3(C)O)[C@@H]1OC(C)=O`, the FR50 in experiment [2] came to 0.04; in experiment [3], 0.45; in experiment [4], 0.15.
For the molecule `CC(=O)O[C@H]1C[C@](C)(O)[C@]23OC(C)(C)[C@H](C(=O)[C@@H](OC(=O)c4ccccc4)[C@]2(OC(C)=O)[C@H]1OC(C)=O)[C@H]3OC(C)=O`, in experiment [6], the LD100 came to 1 microg/cm2.
For the molecule `O=C(OCC1CCCO1)c1cc([N+](=O)[O-])cc([N+](=O)[O-])c1` (centres undefined), in experiment [5], the outcome was inactive. The LD100 result in experiment [6] was “inactive”.
As to `CC(=O)OCC1CCOC1` (centres undefined), the result in experiment [5] was inactive. The LD100 result in experiment [6] is “inactive”.
For the molecule `CC(=O)OC1CCOC1` (single isomer, unassigned; (+)), the result in experiment [5] was inactive. In addition, the LD100 result in experiment [6] was “inactive”.
As to `COCCCC[C@@H]1[C@@H]2[C@@H](OC(C)=O)[C@@]3(OC2(C)C)[C@](OC(C)=O)([C@@H]1OC(=O)c1ccccc1)[C@@H](O)CC[C@]3(C)O`, the FR50 in experiment [2] was 0.08; in experiment [3] it was 0.57; in experiment [4], 0.23.
Regarding `CC[C@@H]1CCC(=O)O[C@H]2[C@H](OC(C)=O)[C@H](OC(C)=O)[C@@]3(OC(C)=O)[C@H](OC(C)=O)C(=O)[C@@H]4[C@@H](OC(C)=O)[C@]3(O[C@@]4(C)COC(=O)c3ccccc31)[C@@]2(C)O` [ORTHOSPHENINE], the LD100 in experiment [6] turned out to be 0.01 microg/cm2.
In the case of `OC1CCOC1` (stereo in doubt; 46), in experiment [5], the outcome was inactive. Also, the LD100 entry in experiment [6] is “inactive”.
Regarding `CC(=O)OCC1CCCO1` (centres undefined), the result in experiment [5] was inactive. Moreover, the LD100 result in experiment [6] was “inactive”.
As for `CC(=O)O[C@H]1C[C@](C)(O)[C@]23OC(C)(C)[C@H]([C@@H](OC(C)=O)[C@@H](OC(=O)c4ccccc4)[C@]2(OC(C)=O)C1)[C@H]3OC(C)=O`, the FR50 in experiment [2] came to 0.1; in experiment [3], 1.1; in experiment [4], 0.18.
Consider `CC(=O)O[C@@H]1[C@@H]2[C@@H](OC(C)=O)[C@@]3(OC2(C)C)[C@](O)([C@@H]1OC(=O)c1ccccc1)[C@@H](OC(C)=O)[C@@H](C(C)=O)C[C@]3(C)O`, for which the FR50 was determined as 0.16 in experiment [2] and 0.66 in experiment [4].
The matching figures for `CC(=O)O[C@H]1CCC(C)[C@]23OC(C)(C)[C@H]([C@@H](C(C)=O)[C@H](OC(=O)c4ccccc4)[C@]12OC(C)=O)[C@H]3OC(C)=O` (some centres undefined): 0.04 and 0.44.
Consider `CC(=O)O[C@H]1C[C@](C)(O)[C@]23OC(C)(C)[C@H]([C@@H](C(C)=O)[C@@H](OC(=O)c4ccccc4)[C@]2(OC(C)=O)[C@H]1OC(=O)c1ccccc1)[C@H]3O`, for which the FR50 in experiment [2] is reported as 0.1; in experiment [3], 1.02; in experiment [4], 0.19.
In the case of `CC(=O)O[C@@H]1[C@H]2C[C@H](OC(=O)c3ccccc3)[C@]3(O)[C@@H](OC(C)=O)[C@@H](C(C)=O)CC(C)[C@@]13OC2(C)C` (some centres undefined), the FR50 in experiment [2] came to 0.19; in experiment [4] it was 0.54.
`OCC1CCCO1` (centres undefined): the outcome in experiment [5] was inactive. In addition, in experiment [6], the LD100 result is “inactive”.
Consider `CC(=O)O[C@H]1CC[C@](C)(O)[C@]23OC(C)(C)[C@H]([C@@H](OC(=O)c4ccccc4)[C@@H](OC(=O)c4ccccc4)[C@]12OC(C)=O)[C@H]3OC(C)=O`, for which the FR50 is given as 0.15 in experiment [2] and 0.4 in experiment [4].
Take `CC(=O)O[C@H]1CC[C@](C)(O)[C@]23OC(C)(C)[C@H](C[C@H](OC(=O)c4ccccc4)[C@]12OC(C)=O)[C@H]3OC(C)=O`: the FR50 in experiment [2] is on record as 0.11; in experiment [3], 0.4; in experiment [4], 0.12.
As to `OC1CCOC1` (racemic), the result in experiment [5] was inactive. For the same molecule, the LD100 entry in experiment [6] is “inactive”.
On to `CC(=O)O[C@@H]1[C@@H]2[C@@H](OC(C)=O)[C@@]3(OC2(C)C)[C@@](OC(C)=O)([C@@H](OC(C)=O)CC[C@]3(C)O)[C@@H]1OC(=O)c1ccccc1`, for which the FR50 in experiment [2] came to 0.03; in experiment [3] it was 0.64; in experiment [4], 0.2.
`CCC(C)C(=O)OC` (single isomer, unassigned; (+)): the result in experiment [5] was inactive. In experiment [6], the LD100 entry was “inactive”.
`CC(=O)O[C@H]1[C@H](OC(=O)c2ccccc2)[C@@]2(C)[C@@H](OC(=O)c3ccccc3)C[C@@H]3[C@@H](OC(C)=O)[C@]2(OC3(C)C)[C@@](C)(O)[C@H]1O` [2BETA,3BETA,4BETA,TRIHYDROXYCELARBICO]: the values for the FR50 in experiment [2] and in experiment [4] were 0.24 and 0.44, respectively.
`CC(=O)O[C@H]1C[C@](C)(O)[C@]23OC(C)(C)[C@H]([C@@H](C(C)=O)[C@@H](OC(=O)c4ccccc4)[C@]2(OC(C)=O)[C@H]1OC(C)=O)[C@H]3OC(C)=O`: the FR50 turned out to be 0.05 in experiment [2], 0.4 in experiment [3] and 0.24 in experiment [4].
With `CC(=O)O[C@@H]1[C@@H]2[C@@H](OC(C)=O)[C@]3(OC2(C)C)C(C)C[C@H](C(C)=O)[C@H](OC(C)=O)[C@@]3(OC(C)=O)[C@H]1OC(=O)c1ccccc1` (some centres undefined), the FR50 was 0.07 in experiment [2] and 0.53 in experiment [4].
Turning to `OCC1CCOC1` (centres undefined), the result in experiment [5] was inactive. The LD100 entry in experiment [6] is “inactive”.
For `O=C(OCC1CCCO1)c1ccccc1` (centres undefined), the result in experiment [5] was inactive. Besides, in experiment [6], the LD100 result was “inactive”.
On to `CCC(C)C(=O)OC` (stereo in doubt; 54), for which the result in experiment [5] was inactive. The LD100 result in experiment [6] is “inactive”.
As for `CC(=O)O[C@H]1C[C@](C)(O)[C@]23OC(C)(C)[C@H](C(=O)[C@@H](OC(=O)c4ccccc4)[C@]2(OC(C)=O)[C@H]1OC(=O)c1ccccc1)[C@H]3OC(C)=O`, the LD100 in experiment [6] is 0.1 microg/cm2.
For `CC(=O)OC1CCOC1` (racemic), the result in experiment [5] was inactive. For the same molecule, in experiment [6], the LD100 result is “inactive”.
For the molecule `O=C(OC1CCOC1)c1ccccc1` (racemic), in experiment [5], the outcome was inactive. Further, the LD100 result in experiment [6] was “inactive”.
Consider `CC(=O)O[C@H]1CCC(C)[C@]23OC(C)(C)[C@H]([C@@H](O)[C@H](OC(=O)c4ccccc4)[C@]12OC(C)=O)[C@H]3OC(C)=O` (some centres undefined), for which the figures for the FR50 in experiment [2] and in experiment [4] were 0.05 and 0.25, respectively.
As for `CC(=O)O[C@@H]1[C@@H]2[C@@H](OC(C)=O)[C@]3(OC2(C)C)C(C)C[C@H](C(C)=O)[C@H](OC(C)=O)[C@@]3(O)[C@H]1OC(=O)c1ccccc1` (some centres undefined), the FR50 was determined as 0.13 in experiment [2] and 0.71 in experiment [4].
As for `C/C=C(/C)C(=O)O[C@@H]1[C@@H]2[C@@H](OC(C)=O)[C@@]3(OC2(C)C)[C@@](OC(C)=O)([C@@H](OC(=O)c2ccccc2)CC[C@]3(C)O)[C@@H]1OC(=O)c1ccccc1`, the results for the FR50 in experiment [2] and in experiment [4] were 0.12 and 0.29, respectively.
